Source: ChEMBL document CHEMBL1201862, “PubChem BioAssay data set” (2004)
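48-hour exposure; five concentrations; linearly interpolated endpoints. GI50 marks 50% less growth.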 Active and inactive are the calls of the source. Rule as the data show it: active = GI50 up to about 1.1 µM and inactive = higher.

Legend:
Assay in all cases: growth of human tumour cells (NCI), 48 h
UO-31 = tested on: UO-31
SK-OV-3 = tested on: SK-OV-3
MOLT-4 = tested on: MOLT-4
SF-268 = tested on: SF-268
SK-MEL-2 = tested on: SK-MEL-2
A498 = tested on: A498
786-0 = tested on: 786-0
RXF 393 = tested on: RXF 393
EKVX = tested on: EKVX
U-251 = tested on: U-251
SNB-19 = tested on: SNB-19
NCI-H522 = tested on: NCI-H522
UACC-257 = tested on: UACC-257
NCI-H460 = tested on: NCI-H460
SR = tested on: SR

Measured: GI50

Nc1c(-c2nc3ccccc3[nH]2)sc(=S)n1-c1ccc(Cl)cc1
inactive: UO-31 29.6 µM | SK-OV-3 34.3 µM | MOLT-4 31.1 µM | SF-268 25.3 µM | SK-MEL-2 25.6 µM | A498 31 µM | 786-0 19.9 µM | RXF 393 23.8 µM | EKVX 35.8 µM | U-251 23.7 µM | SNB-19 25.7 µM | NCI-H522 22.4 µM | UACC-257 25.5 µM

C[C@@H](N[C@H]1CCC[C@@H]1O)c1ccccc1.C[C@@H](N[C@H]1CCC[C@H]1O)c1ccccc1
inactive: UO-31 50.5 µM | SK-OV-3 > 100 µM | MOLT-4 51.5 µM | SF-268 > 100 µM | SK-MEL-2 > 100 µM | NCI-H460 37.8 µM | A498 > 100 µM | 786-0 70.1 µM | RXF 393 > 100 µM | EKVX > 100 µM | U-251 48.1 µM | SNB-19 71.8 µM | NCI-H522 > 100 µM | UACC-257 > 100 µM

O=C(NCCc1ccccc1)C1C(=O)C(=O)N(CCc2ccccc2)C1=O (configuration not stated)
inactive: UO-31 > 100 µM | SK-OV-3 48.4 µM | MOLT-4 > 100 µM | SF-268 > 100 µM | SK-MEL-2 > 100 µM | 786-0 > 100 µM | EKVX > 100 µM | SR > 100 µM | U-251 > 100 µM | SNB-19 > 100 µM | NCI-H522 > 100 µM | UACC-257 > 100 µM

COc1cccc(NC(=O)CC(=O)N2N=C(N(CCC#N)c3ccccc3C)CC2c2ccccc2)c1 (configuration not stated)
inactive: UO-31 > 100 µM | SK-OV-3 > 100 µM | MOLT-4 > 100 µM | SF-268 > 100 µM | SK-MEL-2 > 100 µM | NCI-H460 > 100 µM | 786-0 > 100 µM | RXF 393 > 100 µM | EKVX > 100 µM | SR > 100 µM | U-251 > 100 µM | SNB-19 > 100 µM | NCI-H522 > 100 µM | UACC-257 > 100 µM

OCC(O)COc1ccc(F)cc1 (configuration not stated)
inactive: UO-31 > 100 µM | SK-OV-3 > 100 µM | MOLT-4 > 100 µM | SF-268 > 100 µM | SK-MEL-2 > 100 µM | NCI-H460 > 100 µM | A498 > 100 µM | 786-0 > 100 µM | RXF 393 > 100 µM | EKVX > 100 µM | SR > 100 µM | U-251 > 100 µM | SNB-19 > 100 µM | NCI-H522 > 100 µM | UACC-257 > 100 µM

COc1ccc2c(c1O)C(=O)C(CCC(=O)O)CC2 (configuration not stated)
inactive: SK-OV-3 > 100 µM | MOLT-4 > 100 µM | NCI-H460 > 100 µM | A498 > 100 µM | 786-0 > 100 µM | RXF 393 > 100 µM | EKVX > 100 µM | U-251 > 100 µM | SNB-19 > 100 µM | UACC-257 > 100 µM

CC(=O)OCC1=C(C(=O)O)C(c2ccc3c(c2)OCO3)c2cc3c(cc2O1)OCO3 (configuration not stated)
inactive: UO-31 > 100 µM | SK-OV-3 > 100 µM | MOLT-4 > 100 µM | NCI-H460 > 100 µM | RXF 393 > 100 µM | EKVX > 100 µM | U-251 > 100 µM | SNB-19 > 100 µM | UACC-257 > 100 µM

CCNC(=O)CCN(C(=O)O)S(=O)(=O)c1ccc(NC(=O)c2ccccc2)cc1
inactive: UO-31 > 100 µM | SK-OV-3 > 100 µM | MOLT-4 > 100 µM | SF-268 > 100 µM | SK-MEL-2 > 100 µM | NCI-H460 > 100 µM | A498 > 100 µM | 786-0 10.3 µM | EKVX > 100 µM | SR > 100 µM | U-251 > 100 µM | SNB-19 > 100 µM | NCI-H522 > 100 µM | UACC-257 > 100 µM

NC(=O)c1ncn2c1NCC1OC2C(O)C1O (configuration not stated)
inactive: UO-31 > 100 µM | SK-OV-3 > 100 µM | MOLT-4 > 100 µM | SF-268 > 100 µM | SK-MEL-2 > 100 µM | A498 > 100 µM | 786-0 > 100 µM | RXF 393 > 100 µM | EKVX > 100 µM | SR > 100 µM | U-251 > 100 µM | SNB-19 > 100 µM | NCI-H522 > 100 µM | UACC-257 > 100 µM

NNC(=S)N/N=C(\CCCC(=O)NCCc1ccccc1)CC(=O)c1ccccc1
inactive: UO-31 > 100 µM | SF-268 > 100 µM | SK-MEL-2 > 100 µM | NCI-H460 > 100 µM | A498 > 100 µM | 786-0 > 100 µM | RXF 393 > 100 µM | EKVX > 100 µM | SR > 100 µM | U-251 > 100 µM | SNB-19 > 100 µM | NCI-H522 > 100 µM | UACC-257 > 100 µM

COC(=O)C1=C(O)c2cc(OC)c(OC)c(OC)c2[C@H](c2cc(OC)c(OC)c(OC)c2)C1C(=O)OC (some centres not stated)
inactive: UO-31 41.9 µM | SK-OV-3 35 µM | MOLT-4 22.2 µM | SF-268 42.1 µM | NCI-H460 7.18 µM | A498 30.1 µM | 786-0 34 µM | RXF 393 20.7 µM | EKVX 55.5 µM | U-251 36.5 µM | SNB-19 38.3 µM | NCI-H522 13.5 µM | UACC-257 44.4 µM

COC1(OC)C2(Cl)C(Cl)=C(Cl)C1(Cl)C1C=CC=CC12 (configuration not stated)
inactive: UO-31 > 100 µM | SK-OV-3 > 100 µM | SF-268 > 100 µM | SK-MEL-2 24.1 µM | NCI-H460 > 100 µM | 786-0 > 100 µM | RXF 393 82.4 µM | EKVX > 100 µM | SR > 100 µM | U-251 > 100 µM | SNB-19 > 100 µM | NCI-H522 23.8 µM | UACC-257 > 100 µM

O=C(c1cccs1)N(C(=S)N1CCN(c2ccccc2)CC1)C1CCCCC1
inactive: UO-31 > 100 µM | SK-OV-3 > 100 µM | MOLT-4 > 100 µM | SF-268 > 100 µM | SK-MEL-2 > 100 µM | NCI-H460 > 100 µM | 786-0 > 100 µM | RXF 393 > 100 µM | SR > 100 µM | U-251 > 100 µM | SNB-19 > 100 µM | NCI-H522 > 100 µM | UACC-257 > 100 µM

O=P(Nc1ccccc1)(Oc1ccccc1)N(CCCl)CCCl (configuration not stated)
inactive: UO-31 12.4 µM | SK-OV-3 23.1 µM | MOLT-4 > 100 µM | SF-268 > 100 µM | SK-MEL-2 36.5 µM | A498 > 100 µM | EKVX > 100 µM | SR > 100 µM | U-251 > 100 µM | NCI-H522 14 µM | UACC-257 > 100 µM

CCCc1ccc(NCc2cc(OC)c(OC)c(OC)c2)cc1
inactive: UO-31 24.7 µM | SK-OV-3 22.3 µM | MOLT-4 18.2 µM | SF-268 27.7 µM | SK-MEL-2 18.6 µM | NCI-H460 55 µM | A498 28.3 µM | 786-0 22.4 µM | RXF 393 32.3 µM | EKVX 61 µM | U-251 29.6 µM | SNB-19 36.4 µM | UACC-257 22.4 µM

COc1ccc(C[C@H](N)C(=O)N2C[C@@H](CO)C[C@@H](n3ccc(=O)[nH]c3=O)C2)cc1
inactive: UO-31 > 100 µM | SK-OV-3 > 100 µM | MOLT-4 > 100 µM | SF-268 > 100 µM | SK-MEL-2 > 100 µM | NCI-H460 > 100 µM | RXF 393 > 100 µM | EKVX > 100 µM | SR > 100 µM | U-251 > 100 µM | SNB-19 > 100 µM | NCI-H522 > 100 µM

COc1ccc2oc(-c3ccncc3)cc(=O)c2c1
inactive: UO-31 > 100 µM | MOLT-4 25.2 µM | SF-268 67.6 µM | SK-MEL-2 > 100 µM | NCI-H460 > 100 µM | A498 > 100 µM | 786-0 > 100 µM | RXF 393 > 100 µM | U-251 73.3 µM | SNB-19 > 100 µM | UACC-257 > 100 µM

COc1ccc(OC)c(CC(C)N)c1 (configuration not stated)
inactive: UO-31 > 100 µM | SK-OV-3 > 100 µM | MOLT-4 > 100 µM | SF-268 > 100 µM | SK-MEL-2 > 100 µM | NCI-H460 > 100 µM | A498 > 100 µM | 786-0 > 100 µM | RXF 393 > 100 µM | EKVX > 100 µM | U-251 > 100 µM | SNB-19 > 100 µM | NCI-H522 > 100 µM | UACC-257 > 100 µM

CC(=O)O[C@H]1CC[C@@]2(C)C(=CC[C@H]3C4=CC=C(C(C)=O)[C@@]4(C)CCC32)C1 (some centres not stated)
inactive: UO-31 43.7 µM | SK-OV-3 > 100 µM | MOLT-4 11.4 µM | SF-268 32.4 µM | NCI-H460 43.7 µM | A498 32.4 µM | 786-0 35.5 µM | RXF 393 26.5 µM | EKVX 13.1 µM | SR 19.6 µM | U-251 35.7 µM | SNB-19 63.8 µM | NCI-H522 20 µM | UACC-257 24 µM

C[C@]12C/C(=C/O)C(=O)C(O)=C1CC[C@@H]1C2CC[C@@]2(C)C1CC[C@@H]2O (some centres not stated)
inactive: UO-31 16.3 µM | SK-OV-3 27.5 µM | MOLT-4 26.4 µM | SF-268 24.5 µM | SK-MEL-2 19.9 µM | NCI-H460 21.8 µM | A498 23.6 µM | 786-0 33.3 µM | RXF 393 20.7 µM | EKVX 26.3 µM | U-251 > 10 µM | SNB-19 18.3 µM | NCI-H522 15.6 µM | UACC-257 22.4 µM

O=c1c(C(c2ccc(Cl)cc2)c2c(O)c3ccccc3n(-c3ccccc3)c2=O)c(O)c2ccccc2n1-c1ccccc1
inactive: UO-31 22 µM | SK-OV-3 61.8 µM | MOLT-4 4.45 µM | SF-268 16.9 µM | SK-MEL-2 19.5 µM | RXF 393 36.6 µM | EKVX 17.2 µM | SR 7.43 µM | U-251 16.9 µM | SNB-19 17.7 µM | NCI-H522 22.6 µM
